According to patent US8987212B2, “Oleanoyl peptide composition and method of treating skin aging” (priority 2007, dated 2015):
Where a SMILES comes first, the peptide text is derived from it. The star is where a group is joined. X1 = CC1(C)CC[C@]2(C(=O)*)CC[C@]3(C)C(=CCC4[C@@]5(C)CC[C@H](O)C(C)(C)C5CC[C@]43C)C2C1

What was measured:
[1] = system: human skin; test: Effect of Oleanoyl peptide cream on human facial skin; assay type: in vivo; settings: cream with Oleanoyl peptide (0.01%), twice daily, three weeks, photographs
Method: To study the potential effect of Oleanoyl peptide on human skin, candidates were selected in-house whose age ranging from about 30 to 60 with moderate to severe signs of aging. A topical composition comprising Oleanoyl peptide (0.01%) was prepared as a cream for application on the skin.
The cream containing Oleanoyl peptide was applied on the affected areas of facial skin of the candidates twice daily for a continuous period of three weeks. Photographs of the candidates were taken before and after three weeks of application of the cream.

[2] = system: Interleukin-6 (IL-6); test: Extracellular IL-6 from LPS-challenged human neutrophils; assay type: cell-based; settings: for % activity IL-6 expression against LPS control: ↓ = inhibition
Method: (§1) Experimental observations were made in human neutrophil that were challenged with LPS. […] Rolipram at 100 μg/ml dose level was used as a standard drug to observe the authenticity and reproducibility of the experimental design.

[3] = system: TNF α; test: TNF α inhibition in LPS-stimulated human whole blood (ELISA); assay type: cell-based; settings: human whole blood, LPS 1 ng/mL
Excerpt: For TNF α inhibitory study, human whole blood is used. In whole blood assay, monocytes appear to be the main source of TNF-α on lipopolysaccharide (LPS) stimulation. Monocyte and macrophages are a major source of TNF-α in addition to other cell types like eosinophils, mast cells, peripheral lymphocytes and granulocytes. The activation of inflammatory cells is influenced by the intracellular levels of c-AMP which are regulated by the phosphodiesterase isoenzyme. […] After stimulation, the assay employs the quantitative sandwich enzyme immunoassay technique. A monoclonal antibody specific for TNF-α has been pre-coated onto a microplate. TNF-α present in the sample is bound by the immobilized antibody. After washing away any unbound substances, an enzyme-linked polyclonal antibody specific for TNF-α is added. Following a wash to remove any unbound antibody-enzyme reagent, a substrate solution is added to the wells and colour develops in proportion to the amount of TNF-α bound in the initial step. The colour development is stopped and the intensity of the colour is directly proportional to the TNF-α content.
Heparinized blood from healthy donors was diluted 1:3 in RPMI 1640 culture medium containing 10% FBS. […] 0.1% DMSO was used as vehicle for water insoluble samples. After pre-incubation, the whole blood cells were stimulated by 1 ng/mL LPS for the release of TNF α from the macrophages by incubating for 5 hr at 37° C. in an incubator with 5% COP. The samples were then centrifuged at 3000 g for 3 minutes at 4° C. and the supernatant was assayed for TNF α content by using the TNF α Elisa kit. 200 μL of supernatant from all the tubes was transferred into microtiter plate in respective wells (Pre-coated mouse monoclonal antibody microplate) followed by the addition of 50 μL of assay diluents in all the wells. After incubation for 2 hr at room temperature, the wells were washed thoroughly with wash buffer provided and then 200 μL of conjugate was added to each well. The plate was incubated for 2 hr at room temperature. After washing again, 200 μL of substrate solution was added to each well and incubated for 20 minutes at room temperature. 50 μL of Stop Solution to each well which will cause the colour change in the wells from blue to yellow was added. The optical density was read at 450 nm which is directly proportional to TNF α content and the percentage of inhibition of TNF α content on treatment with sample was calculated with respect to that of the untreated cells.
T=absorbance due to TNF α in the presence of inhibitor

[4] = system: LTB4; test: LTB4 inhibition (same procedure as TNF α); assay type: cell-based, human; settings: at 0.625 μg/ml
Excerpt: The above procedure is also followed for determining LTB4 inhibition by Oleanoyl peptide. From the results tabulated in table 1, it is clear that Oleanoyl peptide is a better TNF α and LTB4 inhibitor.

[5] = molecular target: Collagenase Type IV from Clostridium histolyticum; settings: Collagenase Type IV 0.2 U/ml, DQ gelatin, 30 minutes
[6] = system: Interleukin-1beta (IL-1β); test: Extracellular IL-1β from LPS-challenged human neutrophils; assay type: cell-based; settings: for % activity IL-1β expression against LPS control: ↓ = inhibition
Method: as §1

[7] = system: Prostaglandin E2 (PGE2); test: Extracellular PGE2 from LPS-challenged human neutrophils; assay type: cell-based; settings: for % activity PGE2 expression against LPS control: ↓ = inhibition
Method: as §1
The Oleanoyl peptide was also screened for NO and PGE2 expression.

[8] = DPPH free radical scavenging assay
Method: The DPPH assay is often used to evaluate the ability of antioxidants to scavenge free radicals which are known to be a major factor in biological damages caused by oxidative stress. This assay is known to give reliable information concerning the antioxidant ability of the tested compounds. The assay is based on the color change of the stable free radical DPPH from purple to yellow as the radical is quenched by the antioxidant.
The assay mixture tubes containing 1.5 ml of 0.1 mM DPPH methanolic solution and varying concentrations of the sample in a total volume of 3 ml were incubated at 37° C. for 30 minutes in a shaking water bath. The reduction in absorbance which is directly proportional to the radical scavenging is measured spectrophotometrically at 517 nm. […] The percentage of scavenging is calculated as follows, % scavenging=[(C−T)/C]×100 Where C=absorbance in the absence of inhibitor
T=absorbance in the presence of inhibitor

C[C@@H](O)[C@H](NC(=O)[C@H](CCCCN)NC(=O)[C@]12CCC(C)(C)CC1C1=CCC3[C@@]4(C)CC[C@H](O)C(C)(C)C4CC[C@@]3(C)[C@]1(C)CC2)C(=O)N[C@H](C(=O)N[C@@H](CCCCN)C(=O)N[C@@H](CO)C(=O)O)[C@@H](C)O (stereo partly drawn) [Oleanoyl peptide, Oleanoyl-Lys-Thr-Thr-Lys-Ser-OH] (X1-KTTKS-OH)
effect on dark circles under the eye [1]: reduction of dark circles under the eye
effect on hyperpigmentation [1]: reduction in hyperpigmentation
effect on skin thickness [1]: improvement in skin thickness
effect on wrinkles [1]: wrinkles are softened
Concentration of IL-6 produced (pg/ml) Mean ± S.E. ([2]; test sample 0.125 μg/ml): 130.38 ± 2.11 pg/mL
Concentration of IL-6 produced (pg/ml) Mean ± S.E. ([2]; test sample 0.25 μg/ml): 123.92 ± 2.09 pg/mL
Concentration of IL-6 produced (pg/ml) Mean ± S.E. ([2]; test sample 0.5 μg/ml): 117.23 ± 2.84 pg/mL
Concentration of IL-6 produced (pg/ml) Mean ± S.E. ([2]; test sample 1 μg/ml): 106.81 ± 3.79 pg/mL
Concentration of IL-6 produced (pg/ml) Mean ± S.E. ([2]; test sample 2 μg/ml): 104.75 ± 5.31 pg/mL
Concentration of IL-6 produced (pg/ml) Mean ± S.E. ([2]; test sample 4 μg/ml): 101.11 ± 2.87 pg/mL
% activity IL-6 expression against LPS control ([2]; test sample 0.125 μg/ml): 8.33↓ %
% activity IL-6 expression against LPS control ([2]; test sample 0.25 μg/ml): 12.87↓ %
% activity IL-6 expression against LPS control ([2]; test sample 0.5 μg/ml): 17.58↓ %
% activity IL-6 expression against LPS control ([2]; test sample 1 μg/ml): 24.90↓ %
% activity IL-6 expression against LPS control ([2]; test sample 2 μg/ml): 26.35↓ %
% activity IL-6 expression against LPS control ([2]; test sample 4 μg/ml): 28.03%
% activity IL-6 expression against LPS control ([2]; test sample 4 μg/ml, listed as OP): 28.91↓ %
TNF α inhibition (IC50 μg/ml) [3]: 21 µg/mL
LTB4 inhibition, % inhibition [4]: 26%
Collagenase inhibition (IC50 μg/ml) [5]: 119 µg/mL
Concentration of IL-1β produced (pg/ml) Mean ± S.E. ([6]; test sample 0.125 μg/ml): 130.79 ± 3.07 pg/mL
Concentration of IL-1β produced (pg/ml) Mean ± S.E. ([6]; test sample 0.25 μg/ml): 119.44 ± 2.23 pg/mL
Concentration of IL-1β produced (pg/ml) Mean ± S.E. ([6]; test sample 0.5 μg/ml): 109.72 ± 3.21 pg/mL
Concentration of IL-1β produced (pg/ml) Mean ± S.E. ([6]; test sample 1 μg/ml): 96.61 ± 3.63 pg/mL
Concentration of IL-1β produced (pg/ml) Mean ± S.E. ([6]; test sample 2 μg/ml): 102.08 ± 2.61 pg/mL
Concentration of IL-1β produced (pg/ml) Mean ± S.E. ([6]; test sample 4 μg/ml): 100.45 ± 3.78 pg/mL
% activity IL-1β expression against LPS control ([6]; test sample 0.125 μg/ml): 6.29↓ %
% activity IL-1β expression against LPS control ([6]; test sample 0.25 μg/ml): 14.42↓ %
% activity IL-1β expression against LPS control ([6]; test sample 0.5 μg/ml): 21.39↓ %
% activity IL-1β expression against LPS control ([6]; test sample 1 μg/ml): 31.78%
% activity IL-1β expression against LPS control ([6]; test sample 1 μg/ml, listed as OP): 30.78↓ %
% activity IL-1β expression against LPS control ([6]; test sample 2 μg/ml): 26.86↓ %
% activity IL-1β expression against LPS control ([6]; test sample 4 μg/ml): 28.03↓ %
Concentration of PGE2 produced (pg/ml) Mean ± S.E. ([7]; test sample 0.125 μg/ml): 573.82 ± 6.08 pg/mL
Concentration of PGE2 produced (pg/ml) Mean ± S.E. ([7]; test sample 0.25 μg/ml): 501.64 ± 7.56 pg/mL
Concentration of PGE2 produced (pg/ml) Mean ± S.E. ([7]; test sample 0.5 μg/ml): 468.31 ± 6.41 pg/mL
Concentration of PGE2 produced (pg/ml) Mean ± S.E. ([7]; test sample 1 μg/ml): 419.53 ± 5.07 pg/mL
Concentration of PGE2 produced (pg/ml) Mean ± S.E. ([7]; test sample 2 μg/ml): 384.44 ± 8.02 pg/mL
Concentration of PGE2 produced (pg/ml) Mean ± S.E. ([7]; test sample 4 μg/ml): 395.81 ± 4.68 pg/mL
% activity PGE2 expression against LPS control ([7]; test sample 0.125 μg/ml): 25.37↓ %
% activity PGE2 expression against LPS control ([7]; test sample 0.25 μg/ml): 34.76↓ %
% activity PGE2 expression against LPS control ([7]; test sample 0.5 μg/ml): 39.09↓ %
% activity PGE2 expression against LPS control ([7]; test sample 1 μg/ml): 45.44↓ %
% activity PGE2 expression against LPS control ([7]; test sample 2 μg/ml): 50.00%
% activity PGE2 expression against LPS control ([7]; test sample 2 μg/ml, listed as OP): 50.00↓ %
% activity PGE2 expression against LPS control ([7]; test sample 4 μg/ml): 48.52↓ %
Anti-oxidant activity by DPPH Method, % inhibition ([8]; at 300 μg/ml): 29% inhibition at 300
Anti-oxidant activity by DPPH Method ([8]; result in words): shows DPPH scavenging activity
